In patent US9809557B2 (priority 2011, dated 2017):
≈ marks a conversion by molar mass, not a printed value. Where “and” joins values, the source holds several entries; their conditions need not be identical. Equal entries are not always repeated.

Assays:
[1] = Solubility of the prodrugs in PBS (67 mM phosphate buffer pH 7.4); settings: for solubility thermodynamic: 67 mM phosphate buffer pH 7.4 (PBS), 37 °C; for Sprodrug ± SD: PBS (67 mM phosphate buffer pH 7.4), 37° C.
Description: The determination of the solubility of a prodrug at different pH values of interest according to the present invention is carried by adding excess solid prodrug to a container containing a buffer solution with well-defined pH. The mixture is rotated at constant temperature until an equilibrium between solid prodrug and prodrug in solution has established (that is until the prodrug concentration in the supernatant remains constant). At each measurement the pH of the supernatant is controlled and, if needed, adjusted to the desired pH.
Suspensions of the prodrugs in 67 mM phosphate buffer pH 7.4 (PBS) were prepared by adding 10 mL PBS to approximately 5 mg prodrug. The suspensions were kept unstirred at 37° C. in an incubator hood. At appropriate time intervals over 23 days, about 500 μL samples were taken and after filtration (disposable syringe filters), the solutions were analyzed immediately by HPLC for parent drug and remaining prodrug. Quantitation of parent drug and prodrug was done from peak area measurements in relations to those of standards analysed by HPLC at the same conditions. […] For the diclofenac and ibuprofen prodrugs, the following method was used: Merck Hitachi L 6000 pump connected to Merck Hitachi 4250 UV detector. Reversed phase chromatography was performed using a C18 Gemini® RP column (150×4.6 mm, 5 μm particles) (Phenomenex, Torrance, Calif., USA) equipped with a SecurityGuard precolumn (Phenomenex, Torrance, Calif., USA). The flow rate was set at 1 mL/min and the column effluent was monitored at 230 nm. The mobile phase consisted of 35% (v/v) acetonitrile and 65% (v/v) of 0.1% (v/v) phosphoric acid pH 3.2. The retention times varied in the range of 3 to 30 min.
From the observed relatively stable concentration of dissolved prodrugs measured in the suspensions after 8-9 day up to 23 days, the solubilities of the prodrugs (Sprodrug) were determined.

[2] = Stability (cleavage to parent drug) of prodrug suspensions in PBS pH 7.4; assay type: physicochemical; settings: for half-life at 0.5 mg/mL: 67 mM phosphate buffer (PBS), PBS pH 7.4, 37° C., read-out: t1/2 in PBS (converted); for apparent pseudo-zero-order rate constant k0: appearance of parent drug in PBS pH 7.4 suspension, 37° C.; for estimated pseudo first-order rate constant khyd: cleavage of prodrug in PBS pH 7.4, 37° C., calculated from k0 and Sprodrug
Description: Suspensions of the prodrugs in 67 mM phosphate buffer pH 7.4 (PBS) were prepared by adding 10 mL PBS to approximately 5 mg prodrug. The suspensions were kept unstirred at 37° C. in an incubator hood. At appropriate time intervals over 23 days, about 500 μL samples were taken and after filtration (disposable syringe filters), the solutions were analyzed immediately by HPLC for parent drug and remaining prodrug. Quantitation of parent drug and prodrug was done from peak area measurements in relations to those of standards analysed by HPLC at the same conditions.
From the observed relatively stable concentration of dissolved prodrugs measured in the suspensions after 8-9 day up to 23 days, the solubilities of the prodrugs (Sprodrug) were determined. In this time interval, the rate of appearance of parent drug was determined and an apparent pseudo-zero-order rate constant (k0) was obtained. By assuming that the dissolution rates were much faster than the conversion of the prodrugs to the parent drug, pseudo first-order rate constants (khyd) for cleavage of the prodrugs were calculated according to:

[3] = Hydrolysis of the prodrugs in 80% human plasma; assay type: in vitro ADME; settings: for half-life: read-out: t1/2 in plasma
Description: At 37±0.5° C., the hydrolysis rate of the prodrugs was measured in 80% human plasma. An appropriate aliquot (20-100 μL) of 1 mg/ml prodrug solution in methanol was transferred to 5.0 ml of preheated plasma. At appropriate time intervals, 300 μl sample aliquots were withdrawn and transferred to 600 μl acetonitrile and mixed thoroughly. After centrifugation at 13500 rpm for 5 min, the supernatant was analyzed by HPLC for parent drug and remaining prodrug.

[4] = Solubility at acidic pH, with and without DMA cosolvent; assay type: physicochemical
Description: A suspension of DPX-2-0007 (as hydrochloride salt) was formed by adding 30 mg to 4 mL demineralized water. After rotation of the suspension at 37° C. for 3 days, 1.0 mL sample was taken and after filtration (disposable syringe filters), the solution was diluted in methanol:water 1:1 and analyzed immediately by HPLC for prodrug. […] The pH in the solution was measured to 3.40. The following HPLC method was used: Merck Hitachi L 6200 pump connected to Merck Hitachi 4250 UV detector. Reversed phase chromatography was performed using a RP 18 Symmetry Shields® column (150×4.6 mm, 5 μm particles) equipped with a SecurityGuard precolumn (Phenomenex, Torrance, Calif., USA). […] The retention time of naproxen and DPX-2-0007 were 19 and 5.8 min, respectively.
A suspension of DPX-2-0006 was formed by adding 10 mg to 3 mL demineralized water, 0.05 mL 0.100 M HCl was added to obtain a pH of 3. After rotation of the suspension at 37° C. for 1 days, 0.5 mL sample was taken and after filtration (disposable syringe filters), the solution was diluted in methanol:water 1:1 and analyzed immediately by HPLC for prodrug. […] The HPLC method described in Example 29 was applied and the retention time of DPX-2-0006 was 14 min, respectively. N,N-dimethylacetamide (DMA) was added stepwise to the acidic suspension of DPX-2-0006 and the amount of DPX-2-000 dissolved in the presence of various volumes of DMA was determined after 1-3 days rotation at 37° C. as described above.

[5] = Precipitation on addition of acidic prodrug solution to phosphate buffer pH 7.4; assay type: physicochemical; settings: 1.0 mL aqueous solution pH 3.4 added to 1.0 mL 67 mM phosphate buffer pH 7.4
Description: At appropriate time intervals, samples were withdrawn and centrifuged for 5 min at 13,000 rpm and the supernatant was analysed by HPLC for DPX-4-0001 and formed ketorolac. The HPLC method described in Example 26 was applied. […] A slight increase in the ketorolac concentration is the result of pH dependent hydrolysis of the prodrug bond (FIG. 3).
The pH in the suspension was measured to 7.0.

[6] = pKa value; assay type: physicochemical
[7] = pH 7.4, aqueous buffer, thermodynamic from solid
[8] = hydrolysis in 80% human plasma at 37° C.

Row | solubility thermodynamic [1, 7] | Sprodrug ± SD [1] | half-life at 0.5 mg/mL [2] [days] | apparent pseudo-zero-order rate constant k0 [2] [M/day] | estimated pseudo first-order rate constant khyd [2] [day⁻¹] | half-life [3, 8] [h] | SMILES | also measured
1 | 1 µg/mL | 0.003 mM | – | – | – | – | O=C(Cc1ccccc1Nc1c(Cl)cccc1Cl)OCCn1ccnc1 [DPX-1-0005, 2-(1H-imidazol-1-yl)ethyl 2-(2-(2,6-dichlorophenylamino)phenyl)acetate] | –
2 | 0.3 µg/mL | 0.0007 mM | – | – | – | – | CCCc1nccn1CCOC(=O)Cc1ccccc1Nc1c(Cl)cccc1Cl [DPX-1-0008, 2-(2-propyl-1H-imidazol-1-yl)ethyl 2-(2-(2,6-dichlorophenylamino)phenyl)acetate] | –
3 | 1 µg/mL | 0.002 mM | – | – | – | – | CC(C)Cc1ccc(C(C)C(=O)OCCn2ccnc2-c2ccccc2)cc1 (stereo not drawn) [DPX-3-0007, 2-(2-phenyl-1H-imidazol-1-yl)ethyl 2-(4-isobutylphenyl)propanoate] | –
4 | < 0.3 µg/mL | <0.0007 mM | – | – | – | – | O=C(Cc1ccccc1Nc1c(Cl)cccc1Cl)OCCCCCCn1ccnc1 [DPX-1-0009, 6-(1H-imidazol-1-yl)hexyl 2-(2-(2,6-dichlorophenylamino)phenyl)acetate] | –
5 | 0.01 µg/mL | 2e-05 mM | – | – | – | – | CN(C)c1ccc(CCOC(=O)Cc2ccccc2Nc2c(Cl)cccc2Cl)cc1 [DPX-1-0001, 4-(dimethylamino)phenethyl 2-(2-(2,6-dichlorophenylamino)phenyl)acetate] | –
6 | < 1 µg/mL | <0.003 mM | – | – | – | – | COc1ccc2cc(C(C)C(=O)OCCCN(C)c3ccccc3)ccc2c1 (stereo not drawn) [DPX-2-0003, 3-(methyl(phenyl)amino)propyl 2-(6-methoxynaphthalen-2-yl)propanoate] | –
7 | 15 ± 2 µg/mL | 0.044 ± 0.004 mM | 32 | 1e-06 | 0.022 | 12.6 | CC(C)Cc1ccc(C(C)C(=O)OCCc2ccccn2)cc1 (stereo not drawn) [DPX-3-0004, 2-(pyridin-2-yl)ethyl 2-(4-isobutylphenyl)propanoate] | –
8 | < 0.2 µg/mL | <0.0006 mM | – | – | – | – | COc1ccc2cc(C(C)C(=O)OCCN(C)c3ccccc3)ccc2c1 (stereo not drawn) [DPX-2-0002, 2-(methyl(phenyl)amino)ethyl 2-(6-methoxynaphthalen-2-yl)propanoate] | –
9 | 7 ± 2 µg/mL | 0.015 ± 0.004 mM | 4 | 2.4e-06 | 0.17 | 0.05 | O=C(Cc1ccccc1Nc1c(Cl)cccc1Cl)OCCn1cnc2ccccc21 [DPX-1-0006, 2-(1H-benzo[d]imidazol-1-yl)ethyl 2-(2-((2,6-dichlorophenyl)amino)phenyl)acetate] | –
10 | < 0.3 µg/mL | <0.0008 mM | – | – | – | – | COc1ccc2cc(C(C)C(=O)OCCc3ccc(N(C)C)cc3)ccc2c1 (stereo not drawn) [DPX-2-0001, 4-(dimethylamino)phenethyl 2-(6-methoxynaphthalen-2-yl)propanoate] | –
11 | 4 ± 0.2 µg/mL | 0.012 ± 0.001 mM | 15 | 5.7e-07 | 0.048 | – | CC(C)Cc1ccc(C(C)C(=O)OCCn2cnc3ccccc32)cc1 (stereo not drawn) [DPX-3-0006, 2-(1H-benzo[d]imidazol-1-yl)ethyl 2-(4-isobutylphenyl)propanoate] | stability on incubation in plasma ([3]; 80% human plasma, 37° C., incubation for 10 h): remained intact; t1/2 in plasma [3, 8]: stable
12 | 16 ± 1 µM | 7 ± 1 µg/mL | 11 | 1e-06 | 0.065 | 1.03 | COc1ccc2cc(C(C)C(=O)OCCn3ccnc3-c3ccccc3)ccc2c1 (stereo not drawn) [DPX-2-0007, 2-(2-phenyl-1H-imidazol-1-yl)ethyl 2-(6-methoxynaphthalen-2-yl)propanoate] | solubility ([1]; 67 mM phosphate buffer (PBS), pH 7.4, aqueous buffer, thermodynamic from solid): 7 µg/mL (≈ 17.5 µM); solubility at 3 days ([4]; demineralized water, 37 °C, pH 3.4, water, thermodynamic from solid, pH 3.4, hydrochloride salt in demineralized water, 3 days): 6800 µg/mL; fold increase in solubility at pH 3.4 compared to buffer pH 7.4 (PBS) ([4]; pH 3.4 vs pH 7.4): 1000 fold; precipitation after addition to buffer [5]: a precipitation was immediately observed
13 | < 0.1 µg/mL | <0.0002 mM | – | – | – | – | CN(CCOC(=O)Cc1ccccc1Nc1c(Cl)cccc1Cl)c1ccccc1 [DPX-1-0002, 2-(methyl(phenyl)amino)ethyl 2-(2-(2,6-dichlorophenylamino)phenyl)acetate] | –
14 | 19 ± 1 µg/mL | 0.052 ± 0.002 mM | 21 | 1.7e-06 | 0.033 | 4.78 | COc1ccc2cc(C(C)C(=O)OCCc3ccccn3)ccc2c1 (stereo not drawn) [DPX-2-0004, 2-(pyridin-2-yl)ethyl 2-(6-methoxynaphthalen-2-yl)propanoate] | –
15 | 43 ± 2 µg/mL | 0.086 ± 0.003 mM | 242 | 2.5e-07 | 0.0029 | 0.817 | O=C(Cc1ccccc1Nc1c(Cl)cccc1Cl)OCCn1ccnc1-c1ccccc1 [DPX-1-0007, 2-(2-phenyl-1H-imidazol-1-yl)ethyl 2-(2-((2,6-dichlorophenyl)amino)phenyl)acetate] | –
16 | < 0.4 µg/mL | <0.0008 mM | – | – | – | – | CCCc1nccn1CCCCCCOC(=O)Cc1ccccc1Nc1c(Cl)cccc1Cl [DPX-1-0010, 6-(2-propyl-1H-imidazol-1-yl)hexyl 2-(2-(2,6-dichiorophenylamino)phenyl)acetate] | –
17 | – | 5 ± 1 μg/mL and 0.015 ± 0.002 mM | 11 | 1e-06 | 0.066 | 8.52 | COc1ccc2cc(C(C)C(=O)OCCn3cnc4ccccc43)ccc2c1 (stereo not drawn) [DPX-2-0006, 2-(1H-benzo[d]imidazol-1-yl)ethyl 2-(6-methoxynaphthalen-2-yl)propanoate] | solubility at 1 day ([4]; demineralized water acidified with HCl, 37 °C, pH 2.9, aqueous buffer, thermodynamic from solid, pH 2.9, 37° C., no DMA): 180 µg/mL (≈ 481 µM)
18 | 3 ± 1 µg/mL | 0.007 ± 0.001 mM | 5 | 1.1e-06 | 0.15 | 0.417 | O=C(Cc1ccccc1Nc1c(Cl)cccc1Cl)OCCc1ccccn1 [DPX-1-0004, 2-(pyridin-2-yl)ethyl 2-(2-((2,6-dichlorophenyl)amino)phenyl)acetate] | –
19 | 0.1 µg/mL | 0.0002 mM | – | – | – | – | Cn1ccnc1CCOC(=O)Cc1ccccc1Nc1c(Cl)cccc1Cl [DPX-1-0011, 2-(1-methyl-1H-imidazol-2-yl)ethyl 2-(2((2,6-dichlorophenyl)amino)phenyl)acetate] | –
20 | – | – | – | – | – | – | CN(C)c1ccc(CCO)cc1 [IPU 1, 4-(hydroxyethyl)-N,N-dimethylaniline] | pKa [6]: ~5.2
21 | < 0.3 µg/mL | <0.0006 mM | – | – | – | – | O=C(Cc1ccccc1Nc1c(Cl)cccc1Cl)OCCOCCn1ccnc1-c1ccccc1 [DPX-1-0012, 2-(2-(2-phenyl-1H-imidazol-1-yl)ethoxy)ethyl 2-(2-((2,6-dichlorophenyl)-amino)phenyl)acetate] | –

Row | SMILES | solubility thermodynamic [1, 7] | Sprodrug ± SD [1] | half-life at 0.5 mg/mL [2] [days] | apparent pseudo-zero-order rate constant k0 [2] [M/day] | estimated pseudo first-order rate constant khyd [2] [day⁻¹] | half-life [3, 8] [h] | also measured
22 | COc1ccc2cc(C(C)C(=O)OCCn3ccnc3)ccc2c1 (stereo not drawn) | 146 ± 5 µg/mL | 0.45 ± 0.02 mM | – | – | – | 1.07 | –
